“Also recorded” adds a separate entry of the source.
Assays:
[1] = Decomposition of model 2-furylcarbinol derivatives in solution at room temperature, followed by NMR and photoluminescence spectroscopy
From the text: The generation of hydroxycoumarin 2 in the room temperature solution of furfuryl carbonate 1 in MeCN:MeOH (3:1) was also monitored over time using fluorescence spectroscopy (FIG. 3C).
Furthermore, FIG. 8C illustrates the kinetics of the decomposition of furfuryl carbamates comprising α-methyl, 3-phenoxy, and 5-position substituents according to many embodiments, such as exemplified by 21, and compares them to the furfuryl carbamates without the 3-phenoxy substitution, such as exemplified by furfuryl carbamate 22. More specifically, FIG. 8C provides data from experimental studies, wherein the decompositions of 21 and 22 to generate aminocoumarin 23 were monitored as a function of time using NMR and PL spectroscopy.

[2] = Thermal stability of Diels-Alder adducts in toluene-d8 (retro-Diels-Alder conversion by 1H NMR); type: physicochemical
From the text: For example, FIGS. 7A and 7B illustrate that addition of the 3-phenoxy group to the furan moiety leads to a pronounced increase in the thermal stability of the Diels-Alder adduct of many embodiments. Not to be bound by any theory, this effect has been observed previously for cycloadducts derived from 3-alkoxy-furans, and it has been ascribed to a reduction in the energetic penalty for loss of furan aromaticity (as explained, for example in: Boutelle, R. C.; Northrop, B. H. Substituent Effects on the Reversibility of Furan-Maleimide Cycloadditions. J. Org. Chem. 2011, 76, 7994-8002; and Foster, R. W.; et al. Irreversible endo-Selective Diels-Alder Reactions of Substituted Alkoxyfurans: A General Synthesis of endo-Cantharimides. Chemistry 2015, 21, 6107-6114, the disclosures of which are incorporated herein by reference). Accordingly, FIG. 7A illustrates that, […] after 5 h, while the same conditions lead to approximately 46% reversion of the analogous Diels-Alder adduct (±)-216 without the 3-phenoxy substituent. […] Accordingly, in many embodiments, 3-phenoxy, or any similar aryloxy substituent at 3-position of the furan moiety enhances the thermal stability of such mechanophore platforms without any detriment to their mechanochemical activity.
In comparison, as described herein, heating the Diels-Alder adduct comprising a 3-OPh substituted furan moiety at 70° C. under the same conditions results in <2% retro-Diels-Alder conversion, while for the Diels-Alder adduct comprising neither substituent the conversion ˜46% under the same heating conditions.

[3] = toluene-d8, room temperature, after 132 days

For Cc1cc(=O)oc2cc(OC(=O)OCc3ccc(COC(=O)C(C)(C)Br)o3)ccc12 [Compound S2, (5-(((((4-methyl-2-oxo-2H-chromen-7-yl)oxy)carbonyl)oxy)methyl)furan-2-yl)methyl 2-bromo-2-methylpropanoate], the “estimated half-lives for decomposition” value ([1]; room temperature) was “several weeks”.

In the case of Cc1cc(=O)oc2cc(NC(=O)OC(C)c3ccc(COC(=O)C(C)(C)C)o3)ccc12 (centres unmarked) [Compound 22, (5-(1-(((4-methyl-2-oxo-2H-chromen-7-yl)carbamoyl)oxy)ethyl)furan-2-yl)methyl pivalate], the conversion ([1]; 19.6 mM in MeCN-d3:MeOH (3:1), room temperature, after 134 days, 1H NMR) is reported as “approximately 40%” and the decomposition reactivity ([1]; 3:1 MeCN/MeOH, room temperature, same conditions as 21) is reported as “completely unreactive”.

In the case of Cc1cc(=O)oc2cc(OC(=O)OC(C)c3ccc(COC(=O)C(C)(C)Br)o3)ccc12 (centres unmarked) [Compound 1, (5-(1-((((4-methyl-2-oxo-2H-chromen-7-yl)oxy)carbonyl)oxy)ethyl)furan-2-yl)methyl 2-bromo-2-methylpropanoate], the stability in solvent ([1]; DCM, chloroform, and hexanes) is reported as “relatively stable”, the half-life ([1]; acetonitrile-d3/methanol solution, reaction half-life t1/2 of decomposition, 3:1 (v/v) acetonitrile-d3/methanol, room temperature, from NMR measurements) is reported as 79 min and the stability in solvent ([1]; acidic and protic solvents) is reported as “decomposes quickly”. The stability in solvent ([1]; chloroform and acetonitrile) was “relatively stable” and the half-life ([1]; water/acetonitrile-d3 solution, half-life of decomposition, water/acetonitrile mixture (water 25% by volume in acetonitrile-d3), room temperature, NMR) was ~8 min.

In the case of CC(C)(Br)C(=O)OCCc1ccc(OC23C=CC(CO)(O2)C2C(=O)N(CCOC(=O)C(C)(C)Br)C(=O)C23)cc1 (racemic) [(±)-33, 4-((2-(2-((2-bromo-2-methylpropanoyl)oxy)ethyl)-7-(hydroxymethyl)-1,3-dioxo-1,2,3,3a,7,7a-hexahydro-4H-4,7-epoxyisoindol-4-yl)oxy)phenethyl 2-bromo-2-methylpropanoate], the retro-Diels-Alder conversion ([2]; toluene-d8 (7.7 mM), room temperature, nearly two months) is reported as “negligible; also recorded: no detectable products” and the retro-Diels-Alder conversion ([2]; toluene-d8, 70° C., after 21 h) is reported as ~35%.

With Cc1cc(=O)oc2cc(NC(=O)OC(C)c3oc(COC(=O)C(C)(C)C)cc3Oc3ccccc3)ccc12 (centres unmarked) [Compound 21, (5-(1-(((4-methyl-2-oxo-2H-chromen-7-yl)carbamoyl)oxy)ethyl)-4-phenoxyfuran-2-yl)methyl pivalate] the “time to full conversion to products” value ([1]; 3:1 MeCN/MeOH, room temperature) was “approximately 5 h” and the half-life at 19 μM ([1]; MeCN-d3/MeOH solution, half-life for decomposition t1/2, 3:1 MeCN-d3/MeOH, room temperature, NMR, first-order fit) was 34 min.

With CC(O)[C@@]12C=C[C@@](COC(=O)C(C)(C)Br)(O1)[C@@H]1C(=O)N(CCOC(=O)C(C)(C)Br)C(=O)[C@@H]12 (mixture of isomers) [(±)-216] the retro-Diels-Alder conversion ([2]; toluene-d8, 70° C., after 5 h) was “approximately 46%”, the retro-Diels-Alder conversion ([2]; toluene-d8, 70° C., after 21 h) was “nearly quantitative” and the thermal stability ([2]; toluene-d8, room temperature) was “slow, but detectable, reversion”. For the same compound, the retro-Diels-Alder conversion [2, 3] was “approximately 23%”.

With Cc1cc(=O)oc2cc(NC(=O)OCc3ccc(Oc4ccc(CCOC(=O)C(C)(C)Br)cc4)o3)ccc12 [Compound 35, 4-((5-((((4-methyl-2-oxo-2H-chromen-7-yl)carbamoyl)oxy)methyl)furan-2-yl)oxy)phenethyl 2-bromo-2-methylpropanoate] the half-life at 21 mM ([1]; acetonitrile-d3/methanol solution, half-life for consumption t1/2, 3:1 acetonitrile-d3/methanol, room temperature, NMR, 21 mM) was 558 min, the “yield of aminocoumarin released” value ([1]; acetonitrile/methanol (3:1 v/v), room temperature) was “nearly quantitative” and the half-life ([1]; acetonitrile/methanol solution, half-life of consumption and aminocoumarin generation, acetonitrile/methanol (3:1 v/v), room temperature, 1H NMR and PL) was ~600 min.

With CC(O)C12OC(COC(=O)C(C)(C)Br)(C=C1Oc1ccccc1)C1C(=O)N(CCOC(=O)C(C)(C)Br)C(=O)C12 (racemic) [(±)-29, (2-(2-((2-bromo-2-methylpropanoyl)oxy)ethyl)-7-(1-hydroxyethyl)-1,3-dioxo-6-phenoxy-1,2,3,3a,7,7a-hexahydro-4H-4,7-epoxyisoindol-4-yl)methyl 2-bromo-2-methylpropanoate] the retro-Diels-Alder conversion ([2]; toluene-d8, 70° C., after 5 h) was < 2%, the retro-Diels-Alder conversion ([2]; toluene-d8, 70° C., after 21 h) was < 7% and the thermal stability ([2]; toluene-d8, room temperature) was “stable indefinitely”. For the same compound, the retro-Diels-Alder conversion [2, 3] was “no reaction is observed”.
